In PubChem BioAssay AID256 (DTP/NCI, 2004) one finds T/C data, which are given here for 20 compounds.

The subject of this assay is CD2F1 mice, L1210 leukemia ip, survival T/C. Put plainly: NCI In Vivo Anticancer Drug Screen. Data for tumor model L1210 Leukemia (intraperitoneal) in CD2F1 (CDF1) mice. The settings on record: higher = longer survival. In a few lines: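 Each value reflects a quotient of treated over vehicle control outcomes in mice with a transplanted tumor.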
[1] abbreviates: endpoint: mean survival time, dose: 25.0 mg/kg/injection, schedule: Q01DX009 (ip), vehicle: saline.
Setting [2] is: endpoint: mean survival time, dose: 100.0 mg/kg/injection, schedule: Q01DX009 (ip), vehicle: saline.
[3] abbreviates: endpoint: mean survival time, dose: 100.0 mg/kg/injection, schedule: Q01DX001 (ip), vehicle: saline.
The mark [4] stands for this setting: endpoint: mean survival time, dose: 50.0 mg/kg/injection, schedule: Q01DX009 (ip), vehicle: saline.
Setting [5] is: endpoint: mean survival time, dose: 100.0 mg/kg/injection, schedule: Q04DX003 (ip), vehicle: Klucel (hydroxypropylcellulose) (HPC).
Where [6] appears, read: endpoint: mean survival time, dose: 200.0 mg/kg/injection, schedule: Q04DX003 (ip), vehicle: Klucel (hydroxypropylcellulose) (HPC).
Where [7] appears, read: endpoint: mean survival time, dose: 400.0 mg/kg/injection, schedule: Q04DX003 (ip), vehicle: Klucel (hydroxypropylcellulose) (HPC).
Setting [8] is: endpoint: mean survival time, dose: 100.0 mg/kg/injection, schedule: Q01DX001 (ip), vehicle: saline with Tween-80.
[9] abbreviates: endpoint: mean survival time, dose: 200.0 mg/kg/injection, schedule: Q01DX001 (ip), vehicle: saline with Tween-80.
[10] abbreviates: endpoint: mean survival time, dose: 12.5 mg/kg/injection, schedule: Q01DX009 (ip), vehicle: saline.
[11] abbreviates: endpoint: mean survival time, dose: 50.0 mg/kg/injection, schedule: Q04DX002 (ip), vehicle: saline with Tween-80.
Setting [12] is: endpoint: mean survival time, dose: 100.0 mg/kg/injection, schedule: Q01DX009 (ip), vehicle: saline with Tween-80.
Setting [13] is: endpoint: mean survival time, dose: 200.0 mg/kg/injection, schedule: Q01DX009 (ip), vehicle: saline with Tween-80.
[14] abbreviates: endpoint: mean survival time, dose: 400.0 mg/kg/injection, schedule: Q01DX009 (ip), vehicle: saline with Tween-80.
The mark [15] stands for this setting: endpoint: mean survival time, dose: 50.0 mg/kg/injection, schedule: Q01DX009 (ip), vehicle: saline with Tween-80.

Where “and” joins values, the source holds several entries; their conditions need not be identical. Equal values may be shown once. Toxic doses and inconclusive results are not listed.

Take `CCN(CC)CCNc1ccc(C)c2sc3ccccc3c(=O)c12`: the T/C was 103 % of control (endpoint: mean survival time, dose: 7.5 mg/kg/injection, schedule: Q01DX005 (ip), vehicle: water); 104 % of control (endpoint: mean survival time, dose: 15.0 mg/kg/injection, schedule: Q01DX005 (ip), vehicle: water); 121 % of control (endpoint: mean survival time, dose: 25.0 mg/kg/injection, schedule: Q01DX007 (ip), vehicle: saline); 118 % of control under setting [1]; 107 % of control (endpoint: mean survival time, dose: 25.0 mg/kg/injection, schedule: Q03DX003 (ip), vehicle: saline); 107 % of control (endpoint: mean survival time, dose: 25.0 mg/kg/injection, schedule: Q04DX003 (ip), vehicle: saline). Moreover, the T/C by setting is: (endpoint: mean survival time, dose: 30.0 mg/kg/injection, schedule: Q01DX005 (ip), vehicle: water) 106 % of control; (endpoint: mean survival time, dose: 50.0 mg/kg/injection, schedule: Q03DX003 (ip), vehicle: saline) 112 % of control; (endpoint: mean survival time, dose: 50.0 mg/kg/injection, schedule: Q04DX003 (ip), vehicle: saline) 114 % of control; (endpoint: mean survival time, dose: 100.0 mg/kg/injection, schedule: Q01DX007 (ip), vehicle: saline) 163 % of control; under setting [2], 171 % of control; (endpoint: mean survival time, dose: 120.0 mg/kg/injection, schedule: Q01DX005 (ip), vehicle: water) 110 % of control. Moreover, the T/C by setting is: (endpoint: median survival time, dose: 6.25 mg/kg/injection, schedule: Q01DX009 (ip), vehicle: water) 116 % of control; (endpoint: median survival time, dose: 12.5 mg/kg/injection, schedule: Q01DX009 (ip), vehicle: water) 121 % of control; (endpoint: median survival time, dose: 25.0 mg/kg/injection, schedule: Q01DX009 (ip), vehicle: saline with Tween-80) 114 % of control; (endpoint: median survival time, dose: 25.0 mg/kg/injection, schedule: Q01DX009 (ip), vehicle: saline) 116 % of control and 120 % of control and 100 % of control; (endpoint: median survival time, dose: 50.0 mg/kg/injection, schedule: Q01DX009 (ip), vehicle: water) 165 % of control; (endpoint: median survival time, dose: 100.0 mg/kg/injection, schedule: Q01DX009 (ip), vehicle: saline with Tween-80) 198 % of control. Moreover, the T/C runs as follows: (endpoint: median survival time, dose: 100.0 mg/kg/injection, schedule: Q01DX009 (ip), vehicle: water) 112 % of control; (endpoint: median survival time, dose: 200.0 mg/kg/injection, schedule: Q01DX009 (ip), vehicle: saline with Tween-80) 118 % of control.
Regarding `Cc1nc(N)nc2ccccc12`, the T/C under setting [3] is 100 % of control.
Take `CN(C)CC1CCCCN1` (stereo not given): the T/C by setting is: under setting [4], 94 % of control; under setting [2], 94 % of control; (endpoint: mean survival time, dose: 200.0 mg/kg/injection, schedule: Q01DX009 (ip), vehicle: saline) 94 % of control.
For the compound `C#CCOC(=O)Nc1cccc2ccccc12`, the T/C under setting [5] was 100 % of control, the T/C under setting [6] was 96 % of control and the T/C under setting [7] is 94 % of control.
Regarding `O=Cc1cc(Br)c(O)c(Br)c1`, the T/C runs as follows: (endpoint: mean survival time, dose: 50.0 mg/kg/injection, schedule: Q01DX001 (ip), vehicle: Klucel (hydroxypropylcellulose) (HPC)) 97 % of control; (endpoint: mean survival time, dose: 100.0 mg/kg/injection, schedule: Q01DX001 (ip), vehicle: Klucel (hydroxypropylcellulose) (HPC)) 93 % of control; (endpoint: mean survival time, dose: 200.0 mg/kg/injection, schedule: Q01DX001 (ip), vehicle: Klucel (hydroxypropylcellulose) (HPC)) 97 % of control.
In the case of `C[N+](C)(C)CCC(=O)c1ccc(C(=O)CC[N+](C)(C)C)cc1`, the T/C is, setting by setting: (endpoint: mean survival time, dose: 50.0 mg/kg/injection, schedule: Q04DX002 (ip), vehicle: saline) 96 % of control; under setting [8], 100 % of control; (endpoint: mean survival time, dose: 100.0 mg/kg/injection, schedule: Q04DX002 (ip), vehicle: saline) 96 % of control; under setting [9], 94 % of control; (endpoint: mean survival time, dose: 200.0 mg/kg/injection, schedule: Q04DX002 (ip), vehicle: saline) 96 % of control.
For the compound `COC(=O)c1ccccc1Cn1c(C)cnc1C`, the T/C by setting is: under setting [10], 101 % of control; under setting [1], 93 % of control; under setting [4], 101 % of control and 105 % of control.
Regarding `CC1CCSCS1` (stereo not given), the T/C is, setting by setting: (endpoint: mean survival time, dose: 12.5 mg/kg/injection, schedule: Q04DX002 (ip), vehicle: saline with Tween-80) 97 % of control; (endpoint: mean survival time, dose: 25.0 mg/kg/injection, schedule: Q04DX002 (ip), vehicle: saline with Tween-80) 102 % of control; under setting [11], 102 % of control.
Take `COC(=O)Nc1cccc(OC(=O)N(C)C)c1`: the T/C under setting [12] is 97 % of control, the T/C under setting [13] is 97 % of control and the T/C under setting [14] is 96 % of control.
On to `COc1cc(C2CNCc3cc(O)c(OC)cc32)ccc1O` (stereo not given), for which the T/C reads like this: (endpoint: mean survival time, dose: 75.0 mg/kg/injection, schedule: Q01DX001 (ip), vehicle: saline) 106 % of control; (endpoint: mean survival time, dose: 150.0 mg/kg/injection, schedule: Q01DX001 (ip), vehicle: saline) 102 % of control.
For the compound `OC1C2CCC(C2)C1C(O)(C(F)(F)Cl)C(F)(F)Cl` (stereo not given), the T/C is 97 % of control under setting [12], 91 % of control under setting [13] and 87 % of control under setting [14].
Turning to `O=S(OCC1COS(=O)O1)OCC1COS(=O)O1` (stereo not given), the T/C was 106 % of control (endpoint: mean survival time, dose: 100.0 mg/kg/injection, schedule: Q01DX001 (ip), vehicle: saline sonified); 97 % of control (endpoint: mean survival time, dose: 200.0 mg/kg/injection, schedule: Q01DX001 (ip), vehicle: saline sonified); 104 % of control (endpoint: mean survival time, dose: 400.0 mg/kg/injection, schedule: Q01DX001 (ip), vehicle: saline sonified).
With `CC(=O)Nc1ccc(C#[N+][S-])cc1`, the T/C (endpoint: mean survival time, dose: 3.13 mg/kg/injection, schedule: Q01DX001 (ip), vehicle: Klucel (hydroxypropylcellulose) (HPC)) was 104 % of control; the T/C (endpoint: mean survival time, dose: 6.25 mg/kg/injection, schedule: Q01DX001 (ip), vehicle: Klucel (hydroxypropylcellulose) (HPC)) was 97 % of control; the T/C (endpoint: mean survival time, dose: 12.5 mg/kg/injection, schedule: Q01DX001 (ip), vehicle: Klucel (hydroxypropylcellulose) (HPC)) was 93 % of control.
As for `CN(CCCN(C)N=Nc1ccccc1C(=O)O)N=Nc1ccccc1C(=O)O`, the T/C was 102 % of control under setting [5], 100 % of control under setting [6] and 98 % of control under setting [7].
For the compound `CCOP(=O)(NCc1ccco1)OCC`, the T/C runs as follows: (endpoint: mean survival time, dose: 50.0 mg/kg/injection, schedule: Q01DX001 (ip), vehicle: carboxymethylcellulose (CMC)) 106 % of control; (endpoint: mean survival time, dose: 100.0 mg/kg/injection, schedule: Q01DX001 (ip), vehicle: carboxymethylcellulose (CMC)) 112 % of control.
`CC(C)NC(=O)c1ccc(N=NN(C)C)cc1`: the T/C reads like this: (endpoint: mean survival time, dose: 12.5 mg/kg/injection, schedule: Q01DX009 (ip), vehicle: other) 91 % of control and 105 % of control; (endpoint: mean survival time, dose: 25.0 mg/kg/injection, schedule: Q01DX009 (ip), vehicle: DMSO) 104 % of control; (endpoint: mean survival time, dose: 25.0 mg/kg/injection, schedule: Q01DX009 (ip), vehicle: other) 119 % of control and 100 % of control; (endpoint: mean survival time, dose: 50.0 mg/kg/injection, schedule: Q01DX009 (ip), vehicle: DMSO) 110 % of control; (endpoint: mean survival time, dose: 100.0 mg/kg/injection, schedule: Q01DX009 (ip), vehicle: other) 119 % of control.
As to `c1ccc(C[n+]2ccccc2)cc1`, the T/C is 100 % of control under setting [10], 100 % of control under setting [1], 100 % of control under setting [15] and 106 % of control under setting [4].
For `Nc1nc(Cl)c2nc(Cl)n(C3OC(CO)C(O)C3O)c2n1` (stereo not given), the T/C under setting [3] was 102 % of control; the T/C (endpoint: mean survival time, dose: 200.0 mg/kg/injection, schedule: Q01DX001 (ip), vehicle: saline) is 102 % of control; the T/C (endpoint: mean survival time, dose: 400.0 mg/kg/injection, schedule: Q01DX001 (ip), vehicle: saline) was 100 % of control.
`CC1(CO)C2CCC(CC2)C1CO` (stereo not given): the T/C under setting [15] is 102 % of control; the T/C under setting [8] is 95 % of control; the T/C under setting [12] is 96 % of control; the T/C under setting [9] is 94 % of control; the T/C under setting [13] was 96 % of control.
For the compound `COC(=O)c1ccccc1NCCNc1ccccc1C(=O)OC`, the T/C was 100 % of control under setting [11]; 95 % of control (endpoint: mean survival time, dose: 200.0 mg/kg/injection, schedule: Q04DX002 (ip), vehicle: saline with Tween-80); 88 % of control (endpoint: mean survival time, dose: 400.0 mg/kg/injection, schedule: Q04DX002 (ip), vehicle: saline with Tween-80).
